Molecular target: T1, VLA-4 (Homo sapiens, UniProt P05556+P13612)
T1 construct: host or cells: Jurkat clone E6-1
Assay: Adhesion of Jurkat cells to immobilized VCAM-1 (domains 1-3)
Assay type: cell-based
Design: scale not given here
Conditions: adhesion of CFSE-labeled Jurkat cells to recombinant human VCAM-1 (domains 1-3) coated plates; compounds as yielded by solid phase synthesis, purity about 40-90%
Protocol: In Vitro Assay: Adhesion of Jurkat Cells to Immobilized VCAM-1 (Domains 1-3).
Preparation of Fluorescence Labeled Jurkat Cells:
Jurkat cells (American Type Culture Collection, Clone E6-1, ATCC TIB-152) were cultured in RPMI 1640 medium (Nikken Bio Medical Laboratory, CM1101) supplemented with 10% fetal bovine serum (Hyclone, A-1119-L), 100 U/ml penicilin (Gibco BRL, 15140-122) and 100 μg/ml streptomycin (Gibco BRL, 15140-122) in a humidified incubator at 37° C. with 5% CO2.
Jurkat cells were incubated with phosphate balanced solution (PBS, Nissui, 05913) containing 25 μM of 5(-and-6)-carboxyfluorescein diacetate, succinimidyle ester (CFSE, Dojindo Laboratories, 345-06441) for 20 min at room temperature while gently swirling every 5 min. After centrifugation at 1000 rpm for 5 min, the cell pellet was resuspended with adhesion assay buffer at a cell density of 2×10^6 cells/ml. The adhesion assay buffer was composed of 24 mM Tris-HCl (pH 7.4), 137 mM NaCl, 27 mM KCl, 4 mM glucose, 0.1% bovine serum albumin (BSA, Sigma, A9647) and 2 mM MnCl2.
Preparation of VCAM-1 (Extracellular Domains 1-3):
Complementary DNA (cDNA) encoding 7-domain form of VCAM-1 (GenBank accession #M60335) was obtained using Rapid-Screen™ cDNA library panels (OriGene Technologies, Inc) at Takara Gene Analysis Center (Shiga, Japan). The primers used were 5′-CCAAGGCAGAGTACGCAAAC-3′ (sence) and 5′-TGGCAGGTATTATTAAGGAG-3′ (antisense). PCR amplification of the 3-domain VCAM-1 cDNA was perform using Pfu DNA polymerase (Stratagene) with the following sets of primers: (U-VCAMd1-3) 5′-CCATATGGTACCTGATCAATTTAAAATCGAGACCACCCCAGAA-3′; (L-VCAMd1-3) 5′-CCATATAGCAATCCTAGGTCCAGGGGAGATCTCAACAGTAAA-3′. PCR cycle was 94° C. for 45 sec, 55° C. for 45 sec, 72° C. for 2 min, repeating 15 cycles. After the purification of the PCR product, the fragment was digested with KpnI-AvrII. The digested fragment was ligated into pBluescript IISK(−) (Strategene), which was linealized by digesting with KpnI-XhoI. The ligation was followed by transformation to a Dam/Dcm methylase-free E. coli strain SCS110 (Strategene) to create the donor plasmid pH7. To direct VCAM-1 molecule into the insect cell secretory pathway, the VCAM-1 coding sequence was fused to signal peptide sequence of honeybee melittin. The resulting melittin-VCAM fusion was placed in correct orientation to the baculoviris polyhedrin promoter. Baculovirus transfer vector containing first 3-domain form VCAM-1 (pH10) was constructed by ligation of 0.9 kb fragment from AvrII/Klenow/BclI digests of pH7 into SalI/Klenow/BamHI digests of pMelBacB (Invitrogen). Recombinant baculovirus was generated by using Bac-N-Blue™ Transfection kit (Invitrogen) according to the manufacture's instruction. The recombinant virus was amplified by infection to High-Five™ insect cells for 5-6 days, and virus titer was determined by plaque assay.
High-Five™ insect cells were pelleted in a 225 ml conical tube by centrifugation at 1000 rpm for 5 min After discarding the supernatant, the pellet was resuspended in 1.5×10^9 pfu (MOI=5) of high-titer virus solution, followed by incubation for 1.5 hours at room temperature. The cells were pelleted again and washed once in fresh Express Five™ serum free medium. The cells were pelleted again and finally, resuspended in 200 ml of fresh Express Five™ medium, transferred to a 1,000 ml shaker flask, and incubated in a shaker at 27° C., 130 rpm, for 48 hours before the culture supernatant was collected. The purification of 3-domain form of VCAM-1 from the culture supernatant was performed by one-step anion exchange chromatography. Protein concentration was determined by using Coomassie protein assay reagent (Pierce) according to the manufacture's instruction.
Preparation of Microtiter Plates:
Recombinant human VCAM-1 (extracellular domains 1-3) was dissolved at 0.5 μg/ml in PBS. […]

T1 sequence (P13612 34-1032): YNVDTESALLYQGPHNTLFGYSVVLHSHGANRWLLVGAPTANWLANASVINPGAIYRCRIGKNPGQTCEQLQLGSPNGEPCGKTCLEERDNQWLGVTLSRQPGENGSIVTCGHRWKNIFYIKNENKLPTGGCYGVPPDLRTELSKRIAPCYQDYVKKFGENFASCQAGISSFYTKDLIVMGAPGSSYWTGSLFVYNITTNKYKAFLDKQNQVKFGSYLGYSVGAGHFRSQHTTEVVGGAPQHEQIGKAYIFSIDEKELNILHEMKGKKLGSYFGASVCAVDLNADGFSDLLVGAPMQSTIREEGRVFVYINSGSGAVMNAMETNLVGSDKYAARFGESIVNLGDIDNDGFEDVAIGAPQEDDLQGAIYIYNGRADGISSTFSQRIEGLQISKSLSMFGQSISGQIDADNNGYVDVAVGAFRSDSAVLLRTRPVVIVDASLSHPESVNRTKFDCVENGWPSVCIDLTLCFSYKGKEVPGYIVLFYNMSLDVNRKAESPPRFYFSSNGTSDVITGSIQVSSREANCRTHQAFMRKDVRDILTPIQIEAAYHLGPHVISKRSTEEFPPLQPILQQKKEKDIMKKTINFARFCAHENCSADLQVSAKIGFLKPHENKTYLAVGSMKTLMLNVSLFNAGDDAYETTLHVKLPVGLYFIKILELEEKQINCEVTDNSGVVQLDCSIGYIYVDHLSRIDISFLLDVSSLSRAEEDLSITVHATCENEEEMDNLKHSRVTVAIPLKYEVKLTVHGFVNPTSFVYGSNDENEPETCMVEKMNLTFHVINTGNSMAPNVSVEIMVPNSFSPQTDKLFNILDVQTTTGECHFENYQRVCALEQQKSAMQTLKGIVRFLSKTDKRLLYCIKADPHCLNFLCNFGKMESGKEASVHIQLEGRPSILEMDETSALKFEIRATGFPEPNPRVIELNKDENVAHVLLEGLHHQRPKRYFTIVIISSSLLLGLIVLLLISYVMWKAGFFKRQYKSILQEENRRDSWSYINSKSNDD
T1 sequence (P05556 21-798): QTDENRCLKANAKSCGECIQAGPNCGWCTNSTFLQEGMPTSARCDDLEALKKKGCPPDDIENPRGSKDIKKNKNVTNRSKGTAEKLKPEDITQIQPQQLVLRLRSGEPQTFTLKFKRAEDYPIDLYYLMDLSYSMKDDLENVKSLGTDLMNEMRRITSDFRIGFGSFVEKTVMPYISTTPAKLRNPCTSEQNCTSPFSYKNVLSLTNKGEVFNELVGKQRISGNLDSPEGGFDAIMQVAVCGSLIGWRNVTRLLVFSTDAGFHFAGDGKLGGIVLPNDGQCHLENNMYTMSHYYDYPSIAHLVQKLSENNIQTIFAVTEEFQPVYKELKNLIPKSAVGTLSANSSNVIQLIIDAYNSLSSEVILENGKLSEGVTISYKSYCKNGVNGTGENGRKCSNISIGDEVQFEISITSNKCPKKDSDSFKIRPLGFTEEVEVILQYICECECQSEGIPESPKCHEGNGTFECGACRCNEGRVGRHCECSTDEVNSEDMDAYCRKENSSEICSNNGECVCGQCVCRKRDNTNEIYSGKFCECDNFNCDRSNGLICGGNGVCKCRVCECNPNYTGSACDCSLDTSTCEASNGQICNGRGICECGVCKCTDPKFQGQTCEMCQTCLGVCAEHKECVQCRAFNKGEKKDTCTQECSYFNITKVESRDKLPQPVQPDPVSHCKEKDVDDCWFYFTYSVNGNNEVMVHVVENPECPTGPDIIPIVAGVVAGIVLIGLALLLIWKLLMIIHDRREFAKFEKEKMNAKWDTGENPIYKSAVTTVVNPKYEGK

Row | IC50 | Structure (SMILES)
1 | C-D | Cc1ccc(-c2ccc(C[C@H](NC(=O)C3CCCN(C(=O)c4ccccc4Cl)C3)C(=O)O)cc2)cc1 (stereo partly drawn) [Example 1.2, (2S)-2-({[1-(2-chlorobenzoyl)-3-piperidinyl]carbonyl}amino)-3-(4′-methyl[1,1′-biphenyl]-4-yl)propanoic acid]
2 | C-D | O=C(N[C@@H](Cc1ccc(-c2ccccc2)cc1)C(=O)O)C1CCCN(C(=O)Cc2ccccc2)C1 (some centres unmarked) [Example 1.7]
3 | C-D | O=C(N[C@@H](Cc1ccc(-c2ccccc2)cc1)C(=O)O)C1CCCN(C(=O)c2cccc(Cl)c2)C1 (some centres unmarked) [Example 1.8]
4 | C-D | Cc1ccc(C(=O)N2CCCC(C(=O)N[C@@H](Cc3ccc(-c4ccccc4)cc3)C(=O)O)C2)cc1 (some centres unmarked) [Example 1.9]
5 | C-D | O=C(N[C@@H](Cc1ccc(-c2ccccc2)cc1)C(=O)O)C1CCCN(C(=O)c2ccc3c(c2)OCO3)C1 (some centres unmarked) [Example 1.10]
6 | C-D | O=C(N[C@@H](Cc1ccc(-c2ccccc2)cc1)C(=O)O)C1CCCN(C(=O)C2CCCCC2)C1 (some centres unmarked) [Example 1.11]
7 | C-D | Cc1cc(Cl)c(CC(=O)N2CCCC(C(=O)N[C@@H](Cc3ccc(-c4ccccc4)cc3)C(=O)O)C2)c(Cl)c1 (some centres unmarked) [Example 1.12]
8 | C-D | O=C(N[C@@H](Cc1ccc(-c2ccccc2)cc1)C(=O)O)C1CCCN(C(=O)c2ccccc2Cl)C1 (some centres unmarked) [Example 1.13]
9 | C-D | COc1ccccc1C(=O)N1CCCC(C(=O)N[C@@H](Cc2ccc(-c3ccccc3)cc2)C(=O)O)C1 (some centres unmarked) [Example 1.14]
10 | C-D | Cc1cc(C)c(OC(=O)N2CCCC(C(=O)N[C@@H](Cc3ccc(-c4ccccc4)cc3)C(=O)O)C2)c(C)c1 (some centres unmarked) [Example 1.15]
11 | C-D | Cc1ccc(-c2ccc(C[C@H](NC(=O)C3CCCN(C(=O)Cc4ccccc4)C3)C(=O)O)cc2)cc1 (some centres unmarked) [Example 1.17]
12 | C-D | Cc1ccc(-c2ccc(C[C@H](NC(=O)C3CCCN(C(=O)c4cccc(Cl)c4)C3)C(=O)O)cc2)cc1 (some centres unmarked) [Example 1.18]
13 | C-D | Cc1ccc(C(=O)N2CCCC(C(=O)N[C@@H](Cc3ccc(-c4ccc(C)cc4)cc3)C(=O)O)C2)cc1 (some centres unmarked) [Example 1.19]
14 | C-D | Cc1ccc(-c2ccc(C[C@H](NC(=O)C3CCCN(C(=O)c4ccc5c(c4)OCO5)C3)C(=O)O)cc2)cc1 (some centres unmarked) [Example 1.20]
15 | C-D | Cc1ccc(-c2ccc(C[C@H](NC(=O)C3CCCN(C(=O)C4CCCCC4)C3)C(=O)O)cc2)cc1 (some centres unmarked) [Example 1.21]
16 | C-D | Cc1ccc(-c2ccc(C[C@H](NC(=O)C3CCCN(C(=O)Cc4c(Cl)cc(Cl)cc4Cl)C3)C(=O)O)cc2)cc1 (some centres unmarked) [Example 1.22]
17 | C-D | Cc1ccc(-c2ccc(C[C@H](NC(=O)C3CCCN(C(=O)Oc4c(C)cc(C)cc4C)C3)C(=O)O)cc2)cc1 (some centres unmarked) [Example 1.23]
18 | C-D | COc1ccc(-c2ccc(C[C@H](NC(=O)C3CCCN(C(=O)C4CCCCC4)C3)C(=O)O)cc2)cc1 (some centres unmarked) [Example 1.24]
19 | C-D | COc1ccc(-c2ccc(C[C@H](NC(=O)C3CCCN(C(=O)Cc4c(Cl)cc(C)cc4Cl)C3)C(=O)O)cc2)cc1 (some centres unmarked) [Example 1.25]
20 | C-D | COc1ccc(-c2ccc(C[C@H](NC(=O)C3CCCN(C(=O)c4ccccc4OC)C3)C(=O)O)cc2)cc1 (some centres unmarked) [Example 1.27]
21 | C-D | COc1ccc(-c2ccc(C[C@H](NC(=O)C3CCCN(C(=O)Oc4c(C)cc(C)cc4C)C3)C(=O)O)cc2)cc1 (some centres unmarked) [Example 1.28]
22 | C-D | COc1ccc(-c2ccc(C[C@H](NC(=O)C3CCCN(C(=O)OC4CCCC4)C3)C(=O)O)cc2)cc1 (some centres unmarked) [Example 1.29]
23 | C-D | Cc1ccccc1-c1ccc(C[C@H](NC(=O)C2CCCN(C(=O)Cc3ccccc3)C2)C(=O)O)cc1 (some centres unmarked) [Example 1.30]
24 | C-D | Cc1ccccc1-c1ccc(C[C@H](NC(=O)C2CCCN(C(=O)c3ccc4c(c3)OCO4)C2)C(=O)O)cc1 (some centres unmarked) [Example 1.33]
25 | C-D | Cc1ccccc1-c1ccc(C[C@H](NC(=O)C2CCCN(C(=O)C3CCCCC3)C2)C(=O)O)cc1 (some centres unmarked) [Example 1.34]
26 | C-D | Cc1cc(Cl)c(CC(=O)N2CCCC(C(=O)N[C@@H](Cc3ccc(-c4ccccc4C)cc3)C(=O)O)C2)c(Cl)c1 (some centres unmarked) [Example 1.35]
27 | C-D | Cc1ccccc1-c1ccc(C[C@H](NC(=O)C2CCCN(C(=O)c3ccccc3Cl)C2)C(=O)O)cc1 (some centres unmarked) [Example 1.36]
28 | C-D | Cc1cc(C)c(OC(=O)N2CCCC(C(=O)N[C@@H](Cc3ccc(-c4ccccc4C)cc3)C(=O)O)C2)c(C)c1 (some centres unmarked) [Example 1.38]
29 | C-D | O=C(N[C@@H](Cc1ccc(-c2ccc(Cl)cc2Cl)cc1)C(=O)O)C1CCCN(C(=O)Cc2ccccc2)C1 (some centres unmarked) [Example 1.40]
30 | C-D | O=C(N[C@@H](Cc1ccc(-c2ccc(Cl)cc2Cl)cc1)C(=O)O)C1CCCN(C(=O)c2cccc(Cl)c2)C1 (some centres unmarked) [Example 1.41]

Same assay, conditions: adhesion of CFSE-labeled Jurkat cells to recombinant human VCAM-1 (domains 1-3) coated plates; compounds as yielded by solid phase synthesis, purity about 40-90%; read-out: IC50

Row | IC50 [nM] | Structure (SMILES)
31 | ≤ 500 | COc1ccccc1C(=O)N1CCCC(C(=O)N[C@@H](Cc2ccc(-c3cc(Cl)ccc3Cl)cc2)C(=O)O)C1 (stereo partly drawn) [Example 1.1, (2S)-3-(2′,5′-dichloro[1,1′-biphenyl]-4-yl)-2-({[1-(2-methoxybenzoyl)-3-piperidinyl]carbonyl}amino)propanoic acid]
32 | 500 to 2000 | Cc1ccccc1-c1ccc(C[C@H](NC(=O)C2CCCN(S(=O)(=O)c3c(Cl)cccc3Cl)C2)C(=O)O)cc1 (stereo partly drawn) [Example 1.3, (2S)-2-[({1-[(2,6-dichlorophenyl)sulfonyl]-3-piperidinyl}carbonyl)amino]-3-(2′-methyl[1,1′-biphenyl]-4-yl)propanoic acid]
33 | 500 to 2000 | O=C(N[C@@H](Cc1ccc(-c2ccc(Cl)cc2Cl)cc1)C(=O)O)C1CCCN(C(=O)c2ccccc2Cl)C1 (stereo partly drawn) [Example 1.4, (2S)-2-({[1-(2-chlorobenzoyl)-3-piperidinyl]carbonyl}amino)-3-(2′,4′-dichloro[1,1′-biphenyl]-4-yl)propanoic acid]
34 | ≤ 500 | O=C(N[C@@H](Cc1ccc(-c2cc(Cl)ccc2Cl)cc1)C(=O)O)C1CCCN(C(=O)OC2CCCC2)C1 (stereo partly drawn) [Example 1.5, (2S)-2-[({1-[(cyclopentyloxy)carbonyl]-3-piperidinyl}carbonyl)amino]-3-(2′,5′-dichloro[1,1′-biphenyl]-4-yl)propanoic acid]
35 | ≤ 500 | O=C(N[C@@H](Cc1ccc(-c2cc(Cl)ccc2Cl)cc1)C(=O)O)C1CCCN(S(=O)(=O)Cc2ccccc2)C1 (some centres unmarked) [Example 1.6]
36 | 2000 to 10000 | O=C(N[C@@H](Cc1ccc(-c2ccccc2)cc1)C(=O)O)C1CCCN(C(=O)OC2CCCC2)C1 (some centres unmarked) [Example 1.16]
37 | 500 to 2000 | COc1ccc(-c2ccc(C[C@H](NC(=O)C3CCCN(C(=O)c4ccccc4Cl)C3)C(=O)O)cc2)cc1 (some centres unmarked) [Example 1.26]
38 | 2000 to 10000 | Cc1ccccc1-c1ccc(C[C@H](NC(=O)C2CCCN(C(=O)c3cccc(Cl)c3)C2)C(=O)O)cc1 (some centres unmarked) [Example 1.31]
39 | 2000 to 10000 | Cc1ccc(C(=O)N2CCCC(C(=O)N[C@@H](Cc3ccc(-c4ccccc4C)cc3)C(=O)O)C2)cc1 (some centres unmarked) [Example 1.32]
40 | 500 to 2000 | COc1ccccc1C(=O)N1CCCC(C(=O)N[C@@H](Cc2ccc(-c3ccccc3C)cc2)C(=O)O)C1 (some centres unmarked) [Example 1.37]
41 | 500 to 2000 | Cc1ccccc1-c1ccc(C[C@H](NC(=O)C2CCCN(C(=O)OC3CCCC3)C2)C(=O)O)cc1 (some centres unmarked) [Example 1.39]

— patent US6794386B2, “β-amino acid compounds as integrin antagonists” (Bayer Aktiengesellschaft, priority 2000, dated 2004)
